Where two headings read alike, the source gives them in different places.

Common to all, as to test: Post-emergence action, greenhouse pot test, visual scoring
What all share (type): in vivo

For test [1], the system named is Lolium multiflorum (LOLMU). The settings on record: read-out: % activity found; for inhibition at 30 g/ha: 30 g of ai/ha; for inhibition at 10 g/ha: 10 g of ai/ha. On the procedure: (§1) Seeds or rhizome pieces of mono- and dicotyledonous harmful and useful plants were placed in peat pots (diameter 4 cm) filled with sandy loam and then covered with soil. The pots were kept in a greenhouse under optimum conditions. In addition, harmful plants encountered in paddy rice cultivation were cultivated in pots with a water level 2 cm above the soil surface.
(§2) About three weeks after the start of the cultivation, the test plants were treated at the 2- to 3-leaf stage. The herbicides, formulated as powder or liquid concentrates, were, either alone or in the combinations according to the invention, sprayed in various dosages on to the green parts of the plants using an application rate of 600 l of water/ha (converted). For further cultivation of the plants, the pots were then again kept under optimum conditions in a greenhouse.
(§3) The visual scoring of the herbicidal effects was carried out in intervals up to 21 days after the treatment. Scoring was carried out in percent in comparison to the untreated control plants. 0%=no herbicidal activity, 100%=complete herbicidal activity=complete kill.
(§4) The percentages from the treatments with the herbicides alone (=individual application) and with the combinations according to the invention (=mixtures) were employed to calculate interactions using the method of Colby. When the observed efficacies of the mixtures exceed the formal sum of the values of the tests with individual applications, they also exceed the expected value according to Colby, which is calculated using the formula below (cf. S. R. Colby; in Weeds 15 (1967) pp. 20 to 22):
(§5) • A, B=activity of components A and B in percent at a dosage of a and b g of ai/ha (=gramm of active substance per hectare), respectively. • E=expected value in % at a dosage of a+b g of ai/ha.

In test [2] the test system is Matricaria inodora (MATIN). The settings on record: Tripleurospermum inodorum, read-out: % activity found; for inhibition at 30 g/ha / inhibition at 10 g/ha: MATIN; for inhibition at 30 g/ha: 30 g of ai/ha; for inhibition at 10 g/ha: 10 g of ai/ha. As to the method: as §1, §2, §3, §4, §5
Another test deals with Oryza sativa (ORYSA). To be noted: read-out: % activity found. As to the method:
as §1, §2, §3, §4, §5

Test [3] deals with Triticum aestivum (TRZAS). To be noted: read-out: % activity found; for inhibition at 30 g/ha: 30 g of ai/ha. As to the method: as §1, §2, §3, §4, §5
Test [4] relates to Alopecurus myosuroides (ALOMY). To be noted: 504 h, read-out: % activity found. On the procedure:
as §1, §2, §3, §4, §5

The test system of another test is Avena fatua (AVEFA). The settings on record: read-out: % activity found. On the procedure: as §1, §2, §3, §4, §5
Test [5] relates to Cyperus esculentus (CYPES). The settings on record: for (7) % activity found: CYPES, 21 DAT. On the procedure:
as §1, §2, §3, §4, §5

For another test, the system named is Viola tricolor (VIOTR). The settings on record: read-out: % activity found; for inhibition at 10 g/ha / inhibition at 30 g/ha: VIOTR; for inhibition at 10 g/ha: 10 g of ai/ha; for inhibition at 30 g/ha: 30 g of ai/ha. On the procedure: as §1, §2, §3, §4, §5
Another test deals with Zea mays (ZEAMX). To be noted: read-out: % activity found; for inhibition at 10 g/ha: 10 g of ai/ha. As to the method: as §1, §2, §3, §4, §5
The test system of test [6] is Abuthilon theophrasti (ABUTH). The settings on record: Abutilon theophrasti, read-out: % activity found; for inhibition at 10 g/ha / inhibition at 30 g/ha: ABUTH; for inhibition at 10 g/ha: 10 g of ai/ha; for inhibition at 30 g/ha: 30 g of ai/ha. As to the method:
as §1, §2, §3, §4, §5

Test [7] deals with Amaranthus retroflexus (AMARE). To be noted: read-out: % activity found; for inhibition at 10 g/ha / inhibition at 30 g/ha: AMARE; for inhibition at 10 g/ha: 10 g of ai/ha; for inhibition at 30 g/ha: 30 g of ai/ha. On the procedure: as §1, §2, §3, §4, §5
For test [8], the system named is Fallopia (ex Polygonum) convolvulus (POLCO). To be noted: read-out: % activity found. On the procedure: as §1, §2, §3, §4, §5
Test [9] has as its system Pharbitis purpurea (PHBPU). The settings on record: Ipomoea purpurea, read-out: % activity found; for inhibition at 10 g/ha / inhibition at 30 g/ha: PHBPU; for inhibition at 10 g/ha: 10 g of ai/ha; for inhibition at 30 g/ha: 30 g of ai/ha. As to the method: as §1, §2, §3, §4, §5
Another test deals with Veronica persica (VERPE). The settings on record: read-out: % activity found; for inhibition at 10 g/ha: 10 g of ai/ha. On the procedure:
as §1, §2, §3, §4, §5

Where [10] appears, read: Cyperus esculentus, 504 h, read-out: % activity found.

Regarding `CCOC(=O)C(C)OC(=O)c1cc(Oc2ccc(C(F)(F)F)cc2Cl)ccc1[N+](=O)[O-]` (racemic) [B1-5, (±)-2-ethoxy-1-methyl-2-oxoethyl 5-[2-chloro-4-(trifluoromethyl)phenoxy]-2-nitrobenzoate], the inhibition at 30 g/ha in test [1] (504 h, 21 DAT) was 20%; in [2] (504 h, 21 DAT), 80%; with Oryza sativa (ORYSA) (240 h, ORYSA, 10 DAT, 30 g of ai/ha), 40%; in test [3] (504 h, TRZAS, 21 DAT), 20%.
On to `O=C(O)COc1ccc(Cl)cc1Cl` [B5-2, (2,4-dichlorophenoxy)acetic acid], for which the inhibition at 70 g/ha (in test [4]; with Avena fatua (AVEFA) (504 h); in [5] (setting [10]); with Zea mays (ZEAMX) (240 h); in the test with Zea mays (ZEAMX) (504 h)) was 0% in each case. Besides, the inhibition at 210 g/ha is 0% in test [4]; 0% in the test on Avena fatua (AVEFA) (504 h); 0% in test [3] (240 h); 60% in the test on Viola tricolor (VIOTR) (504 h); 40% in the test on Zea mays (ZEAMX) (240 h).
For the compound `C[C@@H](Oc1ccc(Oc2nc3ccc(Cl)cc3o2)cc1)C(=O)O` [B7-4, (R)-2-[4-(6-chlorobenzoxazol-2-yloxy)phenoxy]propionic acid], the inhibition at 10 g/ha in [6] (240 h, 10 DAT) was 0%; in [6] (504 h, 21 DAT) it was 0%; in test [4] (ALOMY, 21 DAT, 10 g of ai/ha) it was 30%; in test [7] (240 h, 10 DAT), 0%; in test [7] (504 h, 21 DAT) it was 0%; with Avena fatua (AVEFA) (240 h, AVEFA, 10 DAT, 10 g of ai/ha), 0%. Moreover, the inhibition at 10 g/ha was 0% in test [8] (504 h, POLCO, 21 DAT, 10 g of ai/ha); 20% in [1] (240 h, 10 DAT); 0% in test [1] (504 h, 21 DAT); 0% in [2] (240 h, 10 DAT); 0% in test [2] (504 h, 21 DAT); 0% in [9] (240 h, 10 DAT). Moreover, the inhibition at 10 g/ha in test [9] (504 h, 21 DAT) stood at 0%; in test [3] (240 h, TRZAS, 10 DAT, 10 g of ai/ha) it was 0%; in the test on Veronica persica (VERPE) (240 h, VERPE, 10 DAT), 0%; in the test on Veronica persica (VERPE) (504 h, VERPE, 21 DAT), 0%; in the test with Viola tricolor (VIOTR) (240 h, 10 DAT) it was 0%; in the test on Viola tricolor (VIOTR) (504 h, 21 DAT) it was 0%. In addition, the inhibition at 10 g/ha came to 30% in the test with Zea mays (ZEAMX) (240 h, ZEAMX, 10 DAT) and 20% in the test on Zea mays (ZEAMX) (504 h, ZEAMX, 21 DAT). For the same compound, the inhibition at 30 g/ha in [6] (240 h, 10 DAT) is 0%; in test [6] (504 h, 21 DAT), 0%; in test [4] (ALOMY, 21 DAT, 30 g of ai/ha) it was 30%; in test [7] (240 h, 10 DAT), 0%; in test [7] (504 h, 21 DAT), 0%; in the test on Avena fatua (AVEFA) (504 h, AVEFA, 21 DAT, 30 g of ai/ha) it was 0%. Besides, the inhibition at 30 g/ha in test [8] (504 h, POLCO, 21 DAT, 30 g of ai/ha) is 0%; in test [1] (504 h, 21 DAT), 0%; in test [2] (240 h, 10 DAT), 0%; in test [2] (504 h, 21 DAT) it was 0%; in [9] (240 h, 10 DAT), 0%; in test [9] (504 h, 21 DAT), 0%. Further, the inhibition at 30 g/ha in test [3] (240 h, TRZAS, 10 DAT) was found to be 0%; with Veronica persica (VERPE) (504 h, VERPE, 21 DAT, 30 g of ai/ha) it was 0%; in the test with Viola tricolor (VIOTR) (240 h, 10 DAT), 0%; in the test with Viola tricolor (VIOTR) (504 h, 21 DAT), 0%; in the test on Zea mays (ZEAMX) (240 h, ZEAMX, 10 DAT, 30 g of ai/ha), 70%. For the same compound, the “(7) % activity found” value in [5] ((6) dose of B7-4 10, alone) worked out at 0%; in [5] ((6) dose of B7-4 30, alone), 0%.
As for `C[C@@H](Oc1ccc(Oc2ccc(C#N)cc2F)cc1)C(=O)O` [B7-2, (2R)-2-[4-(4-cyano-2-fluorophenoxy)phenoxy]propanoic acid], the inhibition at 25 g/ha (in test [6] (504 h); in [4]; in [7] (240 h); in test [7] (504 h); in the test with Avena fatua (AVEFA) (504 h); in test [5] (setting [10])) was 0% throughout. The inhibition at 25 g/ha in test [8] (240 h) was 0%; in test [8] (504 h), 0%; in test [2] (504 h), 0%; in the test on Oryza sativa (ORYSA) (504 h), 10%; in test [9] (240 h) it was 0%; in test [9] (504 h), 0%. For the same compound, the inhibition at 25 g/ha in the test on Veronica persica (VERPE) (504 h) worked out at 0%; in the test with Viola tricolor (VIOTR) (504 h) it was 0%; with Zea mays (ZEAMX) (240 h) it was 70%; in the test with Zea mays (ZEAMX) (504 h) it was 70%. Also, the inhibition at 75 g/ha in [6] (504 h) was determined as 0%; in [4] it was 20%; in [7] (504 h), 0%; in [5] (setting [10]), 0%; in test [8] (240 h), 0%; in test [8] (504 h) it was 0%. For the same compound, the inhibition at 75 g/ha in [2] (504 h) was 0%; in the test on Oryza sativa (ORYSA) (504 h) it was 20%; in [9] (240 h), 20%; in test [9] (504 h), 0%; in the test on Veronica persica (VERPE) (240 h), 0%; in the test on Veronica persica (VERPE) (504 h), 0%. In addition, the inhibition at 75 g/ha in the test with Viola tricolor (VIOTR) (240 h) and with Viola tricolor (VIOTR) (504 h) was 0% throughout.

The values above are taken from US20100075854A1, “HERBICIDE COMBINATION COMPRISING DIMETHOSXYTRIAZINYL-SUBSTITUTED DIFLUOROMETHANESULFONYLANILIDES” (Bayer CropScience AG, priority 2008, published 2010).
